Laboratory results from ChEMBL document CHEMBL1139986, “Synthesis and biodistribution of 8-iodo-11-(4-methylpiperazino)-5H-dibenzo[b,e][1,4]-diazepine: Iozapine” (Bioorg Med Chem Lett, 2007).

Experiments:
Assay type in all cases: ADME, organism-based
Thyroid gland [1] = assay: Biodistribution in BALB/c mouse thyroid at 7 to 8 KBq, iv after 5 mins; details: in vivo
Intestine = assay: Biodistribution in BALB/c mouse intestine at 7 to 8 KBq, iv after 120 mins; details: in vivo, 2 h
Blood [2] = assay: Biodistribution in BALB/c mouse blood at 7 to 8 KBq, iv after 120 mins; details: in vivo, 2 h
Heart = assay: Biodistribution in BALB/c mouse heart at 7 to 8 KBq, iv after 15 mins; details: in vivo, 0.25 h
Stomach [3] = assay: Biodistribution in BALB/c mouse stomach at 7 to 8 KBq, iv after 120 mins; details: in vivo, 2 h
Liver [4] = assay: Biodistribution in BALB/c mouse liver at 7 to 8 KBq, iv after 120 mins; details: in vivo, 2 h
Cerebellum [5] = assay: Biodistribution in BALB/c mouse cerebellum at 7 to 8 KBq, iv after 120 mins; details: in vivo, 2 h
Mus musculus [6] = assay: Biodistribution in BALB/c mouse upper body at 7 to 8 KBq, iv after 5 mins; details: in vivo
Spleen [7] = assay: Biodistribution in BALB/c mouse spleen at 7 to 8 KBq, iv after 15 mins; details: in vivo, 0.25 h
Cortex [8] = assay: Biodistribution in BALB/c mouse cortex at 7 to 8 KBq, iv after 15 mins; details: in vivo, 0.25 h
Mus musculus [9] = assay: Biodistribution in BALB/c mouse lower body at 7 to 8 KBq, iv after 60 mins; details: in vivo, 1 h
Thalamus [10] = assay: Biodistribution in BALB/c mouse thalamus at 7 to 8 KBq, iv after 60 mins; details: in vivo, 1 h
Cerebellum [11] = assay: Biodistribution in BALB/c mouse cerebellum at 7 to 8 KBq, iv after 5 mins; details: in vivo
Liver [12] = assay: Biodistribution in BALB/c mouse liver at 7 to 8 KBq, iv after 60 mins; details: in vivo, 1 h
Cerebellum [13] = assay: Biodistribution in BALB/c mouse cerebellum at 7 to 8 KBq, iv after 15 mins; details: in vivo, 0.25 h
Kidney [14] = assay: Biodistribution in BALB/c mouse kidney at 7 to 8 KBq, iv after 15 mins; details: in vivo, 0.25 h
Kidney [15] = assay: Biodistribution in BALB/c mouse kidney at 7 to 8 KBq, iv after 60 mins; details: in vivo, 1 h
Spleen [16] = assay: Biodistribution in BALB/c mouse spleen at 7 to 8 KBq, iv after 120 mins; details: in vivo, 2 h
Kidney [17] = assay: Biodistribution in BALB/c mouse kidney at 7 to 8 KBq, iv after 120 mins; details: in vivo, 2 h
Thalamus [18] = assay: Biodistribution in BALB/c mouse thalamus at 7 to 8 KBq, iv after 5 mins; details: in vivo
Hippocampus [19] = assay: Biodistribution in BALB/c mouse hippocampus at 7 to 8 KBq, iv after 15 mins; details: in vivo, 0.25 h
Mus musculus [20] = assay: Biodistribution in BALB/c mouse upper body at 7 to 8 KBq, iv after 60 mins; details: in vivo, 1 h
Pancreas = assay: Biodistribution in BALB/c mouse pancreas at 7 to 8 KBq, iv after 5 mins; details: in vivo
Kidney [21] = assay: Biodistribution in BALB/c mouse kidney at 7 to 8 KBq, iv after 5 mins; details: in vivo
Striatum = assay: Biodistribution in BALB/c mouse striatum at 7 to 8 KBq, iv after 60 mins; details: in vivo, 1 h
Thalamus [22] = assay: Biodistribution in BALB/c mouse thalamus at 7 to 8 KBq, iv after 120 mins; details: in vivo, 2 h
Brain [23] = assay: Biodistribution in BALB/c mouse brain at 7 to 8 KBq, iv after 120 mins; details: in vivo, 2 h
Blood [24] = assay: Biodistribution in BALB/c mouse blood at 7 to 8 KBq, iv after 15 mins; details: in vivo, 0.25 h
Mus musculus [25] = assay: Biodistribution in BALB/c mouse lower body at 7 to 8 KBq, iv after 120 mins; details: in vivo, 2 h
Cerebellum [26] = assay: Biodistribution in BALB/c mouse cerebellum at 7 to 8 KBq, iv after 60 mins; details: in vivo, 1 h
Brain [27] = assay: Biodistribution in BALB/c mouse brain at 7 to 8 KBq, iv after 15 mins; details: in vivo, 0.25 h
Stomach [28] = assay: Biodistribution in BALB/c mouse stomach at 7 to 8 KBq, iv after 5 mins; details: in vivo
Thyroid gland [29] = assay: Biodistribution in BALB/c mouse thyroid at 7 to 8 KBq, iv after 15 mins; details: in vivo, 0.25 h
Mus musculus [30] = assay: Biodistribution in BALB/c mouse lower body at 7 to 8 KBq, iv after 5 mins; details: in vivo
Cortex [31] = assay: Biodistribution in BALB/c mouse cortex at 7 to 8 KBq, iv after 60 mins; details: in vivo, 1 h
Hippocampus [32] = assay: Biodistribution in BALB/c mouse hippocampus at 7 to 8 KBq, iv after 5 mins; details: in vivo
Lung [33] = assay: Biodistribution in BALB/c mouse lung at 7 to 8 KBq, iv after 120 mins; details: in vivo, 2 h
Lung [34] = assay: Biodistribution in BALB/c mouse lung at 7 to 8 KBq, iv after 60 mins; details: in vivo, 1 h

Drug uptake (Thyroid gland [1]): 0 %ID | Drug uptake (Intestine): 34.13 %ID | Drug uptake (Blood [2]): 1.77 %ID | Drug uptake (Heart): 0.28 %ID | Drug uptake (Stomach [3]): 4.61 %ID | Drug uptake (Liver [4]): 9.8 %ID | Drug uptake (Cerebellum [5]): 0.12 %ID | Drug uptake (Mus musculus [6]): 23.3 %ID | Drug uptake (Spleen [7]): 0.31 %ID | Drug uptake (Cortex [8]): 6.65 %ID | Drug uptake (Mus musculus [9]): 10.24 %ID | Drug uptake (Thalamus [10]): 1.56 %ID | Drug uptake (Cerebellum [11]): 6.16 %ID | Drug uptake (Liver [12]): 12.03 %ID | Drug uptake (Cerebellum [13]): 4.71 %ID | Drug uptake (Kidney [14]): 4.41 %ID | Drug uptake (Kidney [15]): 2.15 %ID | Drug uptake (Spleen [16]): 0.04 %ID | Drug uptake (Kidney [17]): 1.19 %ID | Drug uptake (Thalamus [18]): 7.82 %ID | Drug uptake (Hippocampus [19]): 6.64 %ID | Drug uptake (Mus musculus [20]): 11.54 %ID | Drug uptake (Pancreas): 1.41 %ID | Drug uptake (Kidney [21]): 5.42 %ID | Drug uptake (Striatum): 2.11 %ID | Drug uptake (Thalamus [22]): 0.2 %ID | Drug uptake (Brain [23]): 0.1 %ID | Drug uptake (Blood [24]): 3.31 %ID | Drug uptake (Mus musculus [25]): 4.97 %ID | Drug uptake (Cerebellum [26]): 0.94 %ID | Drug uptake (Brain [27]): 2.79 %ID | Drug uptake (Stomach [28]): 1.77 %ID | Drug uptake (Thyroid gland [29]): 0.13 %ID | Drug uptake (Mus musculus [30]): 18.94 %ID | Drug uptake (Cortex [31]): 2.05 %ID | Drug uptake (Hippocampus [32]): 7.07 %ID | Drug uptake (Lung [33]): 0.17 %ID | Drug uptake (Lung [34]): 0.5 %ID
Compound: CN1CCN(C2=Nc3cc([125I])ccc3Nc3ccccc32)CC1 [[125I]I-OZAPINE]
